Experiment: Chemical stability tests of active ingredients in microemulsion formulations at 40° C. for one month
Format: physicochemical
Experimental: Chemical stability tests were conducted on four-way active ingredient microemulsion formulations at 40° C. for one month to determine the active ingredient percent difference at the end of one month.
Other formulations were subjected to accelerated chemical stability tests at a temperature of 40° C. for a period of one month to determine total chemical stability of the active ingredients.
Only the chemical stability of pyraflufen-ethyl was analyzed because of its susceptibility to hydrolysis, as set forth in Examples 13-16.

[1] = four-way microemulsion of Example 11
[2] = four-way microemulsion of Example 12

Compound | Pyraflufen-ethyl Chemical Stability (formulation of Example 13 (2,4-D acid 9.0%, Dicamba […], Pyraflufen-ethyl 0.6%)) | Pyraflufen-ethyl Chemical Stability (formulation of Example 14 (2,4-D acid 9.0%, R(+)MCPP 1.63%, Pyraflufen-ethyl 0.6%)) | Pyraflufen-ethyl Chemical Stability (formulation of Example 15 (2,4-D acid 9.0%, R(+)MCPP 1.63%, Dicamba […], Pyraflufen-ethyl 0.6%)) | Pyraflufen-ethyl Chemical Stability (formulation of Example 16 (2,4-D acid 9.0%, Pyraflufen-ethyl 0.1%)) | Chemical Stability (active ingredient percent difference) [1] | Chemical Stability (active ingredient percent difference) [2]
CCOC(=O)COc1cc(-c2nn(C)c(OC(F)F)c2Cl)c(F)cc1Cl [Pyraflufen-ethyl] | +5.89% | +1.05% | +1.07% | +0.93% | +1.44% | −0.90%
O=C(O)COc1nc(Cl)c(Cl)cc1Cl [Triclopyr] | – | – | – | – | +1.94% | +2.38%
CCCCC(CC)COC(=O)COc1ccc(Cl)cc1Cl (stereo not shown) [2,4-D 2EHE, 2,4-D 2-ethyl hexyl ester] | – | – | – | – | +1.25% | +2.02%

— US8053392B2, “Auxin acid-catalyzed stable microemulsion pesticide formulation” (PBI/Gordon Corporation, priority 2007, dated 2011)
